From patent publication US20190352358A1, “COMPOUNDS, COMPOSITIONS AND USES THEREOF FOR IMPROVEMENT OF BONE DISORDERS” (ALIZE PHARMA III SAS, priority 2017, published 2019)
Residues, ends and D or L forms follow the SMILES beside them. *: point of attachment. Stearoyl = CCCCCCCCCCCCCCCCCC(=O)*

Legend:
[1] = Pharmacokinetics in Göttingen minipigs after intravenous and subcutaneous injection (Example 12); format: in vivo; conditions: minipig; for Cmax: read-out: maximum concentrations (Cmax), mean; for AUC(0-t): read-out: mean total exposure (AUC0-t); for Tmax: read-out: times post dose for maximum concentration (Tmax), median
Method: The peptide was reconstituted in saline (0.9% NaCl). Three Göttingen minipigs (approximately 8-10 months of age) were used per group. Intravenous doses were administered into an ear vein at the dose of 0.5 μmol net peptide/kg. Subcutaneous doses were administered into the right flank of each animal, also at the dose of 0.5 μmol net peptide/kg. Following dosing, serial whole blood samples (ca. 0.25 mL) were collected from a jugular vein into K2EDTA treated containers. Following each blood sample collection, samples were placed into a cooling block at 4° C. Samples were collected prior to dosing then at 5 and 30 minutes then 1, 2, 4, 8, 25, 48, 72 and 96 hours post dose for intravenous injection and at 15 and 30 minutes then 1, 2, 4, 8, 25, 48, 72 and 96 hours post dose for subcutaneous injection.
Blood samples were centrifuged at 10000×g for 2 minutes at 4° C. and resultant plasma aspirated off into clean fully, labelled tubes. Plasma samples were snap frozen following aspiration then stored at −80° C. Peptide extraction and analysis were performed as described in Example 9. The limit of quantification of this method is 0.0015 nmol/mL. All values below this limit of quantification are considered as zero.

[2] = tested on: ovariectomized (OVX) rats; test: Bone biomechanical tests (lumbar vertebrae compression, femoral neck cantilever bending) in OVX rats; format: in vivo, female Sprague-Dawley rats; conditions: 3.2 mg/kg BID s.c., 6 weeks
Method: (§1) Effects on bone of three doses of HBD1 (3-11) with stearic acid at the N-terminus (C18:0) analog were tested in vivo in ovariectomized (OVX) rats, a recognized model for human osteoporosis, in particular postmenopausal osteoporosis. Each group included ten female Sprague-Dawley rats that were four months of age at the beginning of the in-life phase of the study. Treatment started six weeks after OVX surgery and lasted for six additional weeks. Groups were randomized before surgery according to body weight and tibial metaphysis Bone Mineral Density (BMD) as measured by peripheral quantitative computed tomography (pQCT) from Norland Stratec XCT Research SA equipment (Norland Stratec Medizintechnik, Birkenfeld, Germany).
(§2) The peptide was reconstituted in saline solution (0.9% NaCl) and administered subcutaneously twice a day at the doses of 0.8 mg/kg (low), 1.6 mg/kg (med) or 3.2 mg/kg (high) in a volume of 1 mL/kg. The control group was administered twice a day with saline by s.c. administration. Rats were weighed once a week and the volume of dosing solution administered was adjusted accordingly.
Bone biomechanical properties were determined by compression test using Instron 3343 biomechanical testing system (Instron, Norwood, Mass., USA). […]

[3] = Pharmacokinetics of acylated analogs in male Sprague Dawley rats after subcutaneous injection (Example 11); format: in vivo; conditions: sc, rat
Method: The peptides were reconstituted in saline (0.9% NaCl). Three male Sprague Dawley rats (approximately 6 weeks of age) were used per group. Subcutaneous doses were administered into the right flank of each animal […]. Following dosing, serial whole blood samples (ca. 0.3 mL) were collected from retro-orbital sinus into K2EDTA treated containers. Following each blood sample collection, samples were placed into a cooling block at 4° C. Samples were collected prior to dosing then at 15 and 30 minutes then 1, 2, 4, 6, 8 and 24 hours post dose for subcutaneous injection. Blood samples were centrifuged at 3500×rpm for 10 minutes at 4° C. and resultant plasma aspirated off into clean fully, labelled tubes. Plasma samples were snap frozen following aspiration then stored at −80° C. The peptides were extracted with acetonitrile:water (75:25, v/v) and analyzed using developed LC-MS/MS methods as described in Example 9. The limits of detection of these methods are 0.003 nmol/mL for HBD1 (1-13) with palmitic acid at the N-terminus (C16:0), 0.0008 nmol/mL for HBD1 (3-11) with palmitic acid at the N-terminus (C16:0), 0.0070 nmol/mL for HBD1 (3-11) with stearic acid at the N-terminus (C18:0), and 0.0015 nmol/mL for HBD1 (3-11) with myristic acid at the N-terminus (C14:0), HBD1 (3-11) with arachidic acid at the N-terminus (C20:0), HBD1 (3-11) with palmitic diacid at the N-terminus (C16:0-diacid), HBD1 (3-11) with palmitic acid at the C-terminus (C16:0). All values below these limits of quantification were considered as zero.

[4] = tested on: ovariectomized (OVX) rats; test: Bone μCT of proximal tibia in ovariectomized (OVX) rats after 6-week treatment; format: in vivo, female Sprague-Dawley rats; conditions: 0.8, 1.6 or 3.2 mg/kg s.c. twice a day, 6 weeks; dose-dependent
Method: as §1, §2
High-resolution micro-computed tomography (μCT) measurements using SkyScan 1072 or 1172 High Resolution Scanner (Bruker microCT, Kontich, Belgium) were performed ex vivo in right proximal tibia at the end of the treatment period for measuring bone volume, bone cross-sectional dimensions and bone microarchitecture. FIGS. 5A, 5B and 5C show the percent increase from OVX animals HBD1 (3-11) with stearic acid at the N-terminus (C18:0) groups for following selected parameters: Bone Volume Fraction (BV/TV; %), Trabecular number (Tb.N; mm^−1) and Connectivity Density (Conn.D; mm^−3).

[5] = Pharmacokinetics in male Sprague Dawley rats after intravenous and subcutaneous injection (Example 10); format: in vivo; conditions: 1 μmol net peptide/kg, rat; for Tlast (last time point with detectable peptide): listed as HBD1 (3-11) with stearic acid at the N-terminus (C18:0)
Method: The peptides were reconstituted in saline (0.9% NaCl). Three male Sprague Dawley rats were used per group. Intravenous doses were administered into a lateral tail vein at the dose of 1 μmol net peptide/kg. Subcutaneous doses were administered into the right flank of each animal, also at the dose of 1 μmol net peptide/kg. Following dosing, serial whole blood samples (ca. 0.25 mL) were collected from a lateral tail vein into K2EDTA treated containers. Following each blood sample collection, samples were placed into a cooling block at 4° C. Samples were collected prior to dosing then at 2, 5, 15 and 30 minutes then 1, 2, 4, 6 and 8 and 24 hours post dose for intravenous injection and at 15 and 30 minutes then 1, 2, 4, 6, 8 and 24 hours post dose for subcutaneous injection.
Blood samples were centrifuged at 10000×g for 2 minutes at 4° C. and resultant plasma aspirated off into clean fully, labelled tubes. Plasma samples were snap frozen following aspiration then stored at −80° C. Peptides were extracted and analyzed as described in Example 9. The limits of quantification of these methods were 0.001 nmol/mL for cyclic HBD1 (3-11) and HBD1 (3-11) and 0.003 nmol/mL for HBD1 (1-13). All values below these limits of quantification were considered as zero.

[6] = Göttingen, plasma, 0.5 umol/kg, iv, 0.5 μmol/kg
[7] = Göttingen, plasma, 0.5 umol/kg, sc, 0.5 μmol/kg
[8] = male, Sprague Dawley, plasma, iv
[9] = male, Sprague Dawley, plasma, sc

## CCCCCCCCCCCCCCCCCC(=O)N[C@@H](Cc1c[nH]cn1)C(=O)N[C@@H](CC(C)C)C(=O)NCC(=O)N[C@@H](CC(C)C)C(=O)N[C@@H](CCC(=O)O)C(=O)N[C@@H](CCC(=O)O)C(=O)N1CCC[C@H]1C(=O)N[C@@H](CCCCN)C(=O)N[C@@H](CCCCN)C(=O)O [SEQ ID NO: 73, C18:0-HLGLEEPKK] (Stearoyl-HLGLEEPKK-OH; C-terminus assumed)
[1]; [6]
  Cmax: 6.27 µM
  AUC(0-t): 3.75 µM·h
  Tmax: 0.083 h
[1]; [7]
  Cmax: 0.29 µM
  AUC(0-t): 3.07 µM·h
  Tmax: 4 h
[1]; Göttingen, plasma, sc, 0.5 umol/kg, read-out: mean calculated subcutaneous bioavailability relative to i.v.
  bioavailability: 83.1%
[1]; sc, 0.5 μmol/kg
  exposure duration after subcutaneous administration: up to 25 hours
[2]
  biomechanical properties of femoral neck (load at break point): improved
  biomechanical properties of lumbar vertebrae (maximal load, energy absorption at maximal load, stress at maximal load): improved
[3]
  peptide exposure compared among acylated peptides (in words): higher peptide exposure
[4]
  Bone Volume Fraction (BV/TV) at tibial metaphysis vs OVX vehicle: increased
  Connectivity Density (Conn.D) at tibial metaphysis vs OVX vehicle: increased
  Trabecular number (Tb.N) at tibial metaphysis vs OVX vehicle: increased
[5]; iv
  Tlast (last time point with detectable peptide): 8 h
[5]; male, Sprague Dawley, plasma, subcutaneous, sc vs iv, read-out: F (bioavailability)
  bioavailability: 52%
[5]; [8]
  AUC(0-t): 9.28 µM·h
  Cmax: 10.2 µM
  Tmax: 0.033 h
[5]; [9]
  AUC(0-t): 4.81 µM·h
  Cmax: 0.54 µM
  Tmax: 4 h
[5]; sc
  Tlast (last time point with detectable peptide): 8 h
